From patent US20040038946A1, “Fullerene-based drugs targeted to bone” (priority 2003, published 2004)
Read-outs that look alike come from different tables or passages of the source.

Experiments:
[1] = Constant composition HAP crystal growth inhibition; settings: for Rate of HAP crystal growth: 37 °C, uninhibited rate 9.09; for Reduction of HAP crystal growth rate: concentration of 3.1×10^-5 M
Method: Hydroxyapatite seed crystals were prepared from calcium nitrate and potassium dihydrogen phosphate, as detailed elsewhere. The specific surface area, 34.9 m2 g-1, was determined by BET nitrogen adsorption using a 30/70 N2/He mixture (Monosorb, Quantachrome Corp). HAP crystals in the form of a suspension in water (41.8 g L-1) were used for the crystal growth experiments.
Solutions were prepared using triply distilled carbon dioxide-free water and filtered before use through washed 0.22 μm filters (Millipore, Bedford, Mass.). Calcium concentrations were determined either complexometrically by EDTA titration with Eriochrome Black-T as indicator, or by atomic absorption (Perkin-Elmer, model 3100, Norwich, Conn.). Carbon dioxide-free potassium hydroxide solutions were prepared from washed Reagent grade pellets in a nitrogen atmosphere.
Crystal growth experiments were made in magnetically-stirred water-jacketed Pyrex vessels at 37.0±0.05° C. with ionic strength, I=0.15 mol L^−1, adjusted by the addition of sodium chloride. Supersaturated solutions were prepared by introducing calcium chloride solution, followed by potassium dihydrogen phosphate solution. The pH was adjusted to the required value by the slow addition of potassium hydroxide solutions. During the reactions, carbon dioxide was excluded by bubbling with presaturated nitrogen gas. After equilibration, 0.5 mL of the HAP slurry was introduced to initiate the reaction. Since the nucleation and growth of crystals consume solution lattice ions, the lowering of pH was used to trigger the addition of two titrant solutions that served to maintain constant the pH, the concentrations of calcium and phosphate and the ionic strength of the solution. A glass electrode (Orion, model 9101), standardized using two NBS buffer solutions at pH=7.386 and 4.028 at 37° C., was used to control titrant addition through a potentiostat. The total calcium concentration in all experiments was 6.00×10^−4 mol L^−1 with a calcium/phosphate molar ratio of 1.67, so as to achieve a supersaturation with respect to HAP of σ=5.55 (as defined in Eq. (1)), as computed from mass balance, proton dissociation, electroneutrality, and equilibrium expressions involving calcium and phosphate species.
In Eq. (1), v is the number of ions per formula unit of precipitating phase and IP and KSO are, respectively, the ionic and solubility products of HAP.
During the reactions, samples were withdrawn periodically, filtered (0.22 μm Millipore filter) and analyzed for calciwn by atomic absorption and for phosphate spectrophotometrically (Varian, Cary 210) as the phosphovanadomolybdate complex in order to verify the constancy of the solution composition. Solid phases were examined by X-ray powder diffraction, XRD, (Siemens Nicolet/Nic spectrometer, CuK radiation with Ni filter=1.540; 2 from 3o to 45o), by scanning electron microscopy (SEM at 20 kV; JEOL JSM-5300, Noran Instrumental Inc. Middleton, Wis.) and by diffuse reflectance infared fourier transform spectroscopy (FTR, Perkin Elmer 1760×Fr-IR spectrometer). Plots of mineralization were calculated from plots of titrant volumes as a function of time as described previously.
It is quite well established that strong inhibitors of crystal growth, such as the phosphonates, act by blocking, through adsorption, active growth sites at the crystal surfaces. Commonly, inhibition kinetics data are interpreted in terms of a simple Langmuir adsorption model. Assuming that the adsorbed fullerene molecules occupy a fraction, θ, of the active growth sites, thereby preventing them from participating in the growth, the growth rate R can be written in terms of the uninhibited rate Ro (Eq. (2)): […]

[2] = cited from earlier work
[3] = Concentration 1.0 × 10^−6 mol/L

## 4,4-bisphosphono-2-(polyhdroxyl-1,2-dihdro-1,2-methanofullerene[60]-61-carboxamido)butyric Acid [C60(OH)16AMBP]
[1]; C60(OH)16AMBP 0.39 × 10^−6 mol L^−1
  Rate of HAP crystal growth: 7.67 10^−8 mol min^−1 m^−2
[1]; C60(OH)16AMBP 0.77 × 10^−6 mol L^−1
  Rate of HAP crystal growth: 6.51 10^−8 mol min^−1 m^−2
[1]; C60(OH)16AMBP 1.16 × 10^−6 mol L^−1
  Rate of HAP crystal growth: 4.55 10^−8 mol min^−1 m^−2
[1]; C60(OH)16AMBP 1.54 × 10^−6 mol L^−1
  Rate of HAP crystal growth: 3.77 10^−8 mol min^−1 m^−2
[1]; C60(OH)16AMBP 1.93 × 10^−6 mol L^−1
  Rate of HAP crystal growth: 2.83 10^−8 mol min^−1 m^−2
[1]; C60(OH)16AMBP 2.32 × 10^−6 mol L^−1
  Rate of HAP crystal growth: 2.46 10^−8 mol min^−1 m^−2
[1]; C60(OH)16AMBP 2.7 × 10^−6 mol L^−1
  Rate of HAP crystal growth: 1.92 10^−8 mol min^−1 m^−2
[1]; C60(OH)16AMBP 3.09 × 10^−6 mol L^−1
  Rate of HAP crystal growth: 1.57 10^−8 mol min^−1 m^−2
[1]; C60(OH)16AMBP 3.47 × 10^−6 mol L^−1
  Rate of HAP crystal growth: 1.23 10^−8 mol min^−1 m^−2
[1]; [3]
  Percent Reduction in Growth Rate: 50%
[1]; Concentration 3.5 × 10^−6 mol/L
  Percent Reduction in Growth Rate: 87%
[1]
  Reduction of HAP crystal growth rate: 87%

## CC(O)(P(=O)(O)O)P(=O)(O)O [CH3C(OH)[P(O)(OH)2]2, 1-hydroxyethylidene-1,1-diphosphonic acid]
[2]; [3]
  Percent Reduction in Growth Rate: 69^ref 29%
[2]
  Affinity Constant: 13.3 × 10^5 ref 29 L mol^−1

## Fullerenol[60] [C60(OH)30]
[1]; C60(OH)30 0.41 × 10^−6 mol L^−1
  Rate of HAP crystal growth: 8.31 10^−8 mol min^−1 m^−2
[1]; C60(OH)30 0.81 × 10^−6 mol L^−1
  Rate of HAP crystal growth: 7.8 10^−8 mol min^−1 m^−2
[1]; C60(OH)30 1.22 × 10^−6 mol L^−1
  Rate of HAP crystal growth: 6.55 10^−8 mol min^−1 m^−2
[1]; C60(OH)30 1.63 × 10^−6 mol L^−1
  Rate of HAP crystal growth: 5.94 10^−8 mol min^−1 m^−2
[1]; C60(OH)30 2.03 × 10^−6 mol L^−1
  Rate of HAP crystal growth: 5.7 10^−8 mol min^−1 m^−2
[1]; C60(OH)30 2.44 × 10^−6 mol L^−1
  Rate of HAP crystal growth: 4.65 10^−8 mol min^−1 m^−2
[1]; C60(OH)30 2.85 × 10^−6 mol L^−1
  Rate of HAP crystal growth: 4.07 10^−8 mol min^−1 m^−2
[1]; C60(OH)30 3.25 × 10^−6 mol L^−1
  Rate of HAP crystal growth: 3.97 10^−8 mol min^−1 m^−2
[1]; C60(OH)30 3.66 × 10^−6 mol L^−1
  Rate of HAP crystal growth: 3.85 10^−8 mol min^−1 m^−2
[1]; C60(OH)30 4.07 × 10^−6 mol L^−1
  Rate of HAP crystal growth: 2.64 10^−8 mol min^−1 m^−2
[1]; C60(OH)30 4.47 × 10^−6 mol L^−1
  Rate of HAP crystal growth: 2.49 10^−8 mol min^−1 m^−2
[1]; [3]
  Percent Reduction in Growth Rate: 28%
[1]; Langmuir adsorption model, slope of Ro/R versus concentration
  Affinity Constant: 414000 L/mol
[1]
  Reduction of HAP crystal growth rate: 58%
